Assay results taken from patent US4312883A, “Furocoumarin for the photochemotherapy of psoriasis and related skin diseases” (Consiglio Nazionale delle Ricerche, priority 1979, dated 1982).
Where a name gives a salt, the structure may show the parent alone.

Key:
epidermal DNA synthesis [1] = experiment: Inhibition of epidermal DNA synthesis in the mouse in vivo after topical application and UV-A irradiation; details: light or radiation study, 0.01% methanol solutions, UV-A 9 J/cm^2, read-out: Percent inhibition ± standard error of epidermal DNA synthesis
Description: DNA samples were dissolved in water and their specific radioactivity determined.
Each drug substance was studied using at least six mice.

epidermal DNA synthesis [2] = experiment: Inhibition of the synthesis of epidermal DNA of the mouse in vivo after oral administration and UV-A irradiation; details: oral 0.25 g/Kg, UV-A 9 J/cm^2 after two hours
Description: Considering that the topical skin tests carried out on mice to evaluate the effectiveness of these substances has yielded data which correlate well with the clinical data, such a test conveniently modified has been adopted to evaluate the effectiveness of the alkylangelicins after oral administration followed by UV-A irradiation.
In this connection experiments have been conducted using mice 20±2 g in weight, that were starved for three hours before oral administration of the alkylangelicins. Groups of 5 mice were fed a suspension of 0.5% methylcellulose in water containing the alkylangelicins of the invention at a dosage of 0.25 g/Kg. The animals were kept in the dark for two hours, that is for the time necessary for absorption, systemic distribution and localization of the drug at the level of the skin. The animals were then irradiated with UV-A light, 9 J/cm^2. Later the animals were sacrificed and the inhibition of the epidermal DNA synthesis was tested; the results obtained are reported in Table VI. The skin on the back, protected from light by a dark paper, was assumed as a control. As a reference 8-MOP, used under the same experimental conditions, was also tested. The significant activity of the alkylangelicins according to the present invention, higher than that of 8-MOP, in inhibiting the epidermal DNA synthesis in mice upon oral administration allows one to consider these compounds as also being effective for oral administration to humans for photochemotherapy of psoriasis and of other skin diseases that are characterized by cellular hyperproliferation.

[3] = tested on: RNA synthesis in Ehrlich ascites tumor cells; experiment: Inhibition of RNA synthesis on irradiation at 365 nm; format: cell-based; details: relative (ang = 100)
Description: (§1) Photobiological activity: A significant test for assessing photobiological activity of alkylangelicins is the study of their capacity to inhibit DNA and RNA synthesis in Ehrlich ascites tumor cells. In Table III the capacity of inhibition is expressed as ID50, that is the irradiation does, in terms of quanta at 365 nm, necessary to inhibit in these cells the 50% of the DNA and RNA synthesis in the presence of a constant amount of alkylangelicin. […] Moreover, in general it can be observed that in this simple biological system a close correlation exists between photobiological activity and the capacity to induce photochemical lesions in DNA, that is photoreactivity.

DNA [4] = experiment: Capacity to form inter-strand cross-linkages in DNA; format: biochemical; details: (psr = 100)
Description: All these compounds were not suitable to photoinduce in DNA inter-strand cross-linkages. […] These tests were carried out according to the method of F. Bordin et al., Photochem. Photobiol., 29,1063 (1979).

psoriasis = experiment: Topical photochemotherapy of psoriasis in patients; format: in vivo, human; details: for No. of patients with Excellent result / No. of patients with Fair result / No. of patients with Good result / No. of patients with Poor result: topical 0.1% w/v + UV-A; for No. of patients with Excellent result: Excellent = 90% clearance; for No. of patients with Fair result: Fair = 50-70%; for No. of patients with Good result: Good = 70-90%; for No. of patients with Poor result: Poor 40%
Description: Clinical data: The effectiveness of certain representative alkylangelicins according to the present invention, specifically 5-methylangelicin, 4,5'-dimethylangelicin, 4'-hydroxymethyl-4,5'-dimethylangelicin, 4'-hydroxymethyl-4,5'-dimethylangelicin and 4,5-dimethylangelicin, has been tested by measuring their capacity to resolve psoriasis in various patients. For a direct comparison the efficacy of the parent unsubstituted angelicin and that of three very effective linear furocoumarins, that is 8-methoxypsoralen (8-MOP), 5-methoxypsoralen (5-MOP), and 4,5',8-trimethylpsoralen (TMP) were also tested.
In each treatment four areas of the affected skin were used;
(a) In the first area an alcohol lotion, containing 10% glycerine, of the tested compound (0.1% w/v) was applied until a concentration of […] was reached then left to evaporate by the heat of the body. After half an hour the area was irradiated with high intensity UV-A emitting low pressure mercury fluorescent lamps with a wavelength of 320-400 nm. The irradiation doses were selected in the range of 4.5-13 J/cm^2 for each application as a function of the sensitivity of the skin of the patients; when the skin sensitivity was higher, the light doses were lower and vice versa.
(b) A second area was treated with an alcohol solution of the drug as in (a) but it was covered and maintained in the dark.
(c) A third area, where the drug was not applied, was irradiated as in (a) but in general with higher UV-A doses.
(d) A fourth area was not treated at all, neither with the drug, not with UV-A.
The treatment with the alkylangenlicins referred to above was repeated 5 time a week for two or more weeks; the total number of treatments was between 8 and 20 per subject. In some cases, as for instance with 5-methylangelicin, a good clearing of psoriasis was observed after 8 treatments.
In order to avoid induction of photosensitization processes such as redness and erythema in the reference tests made with the linear furocoumarins 8-MOP, 5-MOP, TMP, lower light doses were used than in the case of alkylangelicins, the treatments were repeated at a frequency of no more than three times a week.

skin = experiment: Relative skin phototoxicity; details: (psr = 100)
DNA [5] = experiment: Dark complex formation (intercalation) with DNA in the ground state, binding parameters; design: K (association constants) of the complexes with DNA: unit not given here; details: for K (association constants) of the complexes with DNA / 1/n (frequency of binding sites): in vitro, ground state; for K (association constants) of the complexes with DNA: McGhee and Von Hippel method; for 1/n (frequency of binding sites): molecules bound per nucleotide; for 1/n (frequency of binding sites), relative / K (association constants), relative: relative (ang = 100)
Description: Dark complex formation: It is known from F. Dall'Acqua, et al. Chem.-Biol. Interactions 21,103 (1978) that the intercalated complex formed by furocoumarins with DNA strongly affects the successive photoaddition increasing the rate of photobinding. […] These parameters have been determined according to the method of McChee and Von Hippel, J.Mol.Biol, 86, 469 (1974).
(a) Determined according to Mc Ghee and Von Hippel, J. Mol. Biol.,

[6] = tested on: DNA synthesis in Ehrlich ascites tumor cells; experiment: Inhibition of DNA synthesis (and DNA and RNA synthesis) on irradiation at 365 nm; format: cell-based; details: for inhibition of DNA synthesis, relative: relative (ang = 100)
Description: as §1

DNA [7] = experiment: Photobinding to DNA, rate constants of the photoreactions; format: biochemical; details: for Rate constants of the photoreactions with DNA: in vitro, UV-A irradiated; for photobinding capacity to DNA (in words): versus angelicin; for Rate constants of the photoreactions with DNA, relative: relative (ang = 100)
Description: (b) Determined according to F. Dall'Acqua, S. Marciani, F. Zambon and G.
Rodighiero, Photochem. Photobiol., 29,489(1979).
Photobinding capacity to DNA: The introduction of one or two methyl groups in the molecule of angelicin leads to a strong increase of the photobinding to DNA; see Table II. […] Photobiol., 29, 489 (1979).

Solubility = format: physicochemical
Acute toxicity in mice = details: mouse, in vivo, po
DNA [8] = details: cited from earlier work; for DNA intercalation property / Interstrand cross-linking induction in DNA / Monoadduct forming property: Table I; for Photobinding capacity to DNA: known furocoumarins
melamin pigmentation = details: Table I; cited from earlier work
[9] = cited from earlier work
[10] = known furocoumarins, Table I; cited from earlier work
[11] = Table I; cited from earlier work
DNA synthesis = details: Table I; cited from earlier work

CC(=O)OCc1c(C)oc2ccc3c(C)cc(=O)oc3c12 [4'-acetoxymethyl-4,5'-dimethylangelicin, 4,5'-dimethyl-4'-acetoxymethylangelicin]
inhibition in vivo at 0.01 % (epidermal DNA synthesis [1]): 10.6 ± 4.5% | Percent inhibition ± standard error of epidermal DNA synthesis (epidermal DNA synthesis [2]): 64.8 ± 13.9%

Cc1oc2ccc3c(C)cc(=O)oc3c2c1CO [4'-hydroxymethyl-4,5'-dimethylangelicin, 4,5'-dimethyl-4'-hydroxy-methylangelicin]
inhibition of RNA synthesis, relative [3]: 169 | capacity to form interstrand cross-linkages (DNA [4]): 0 | No. of patients with Excellent result (psoriasis): 0 patients | No. of patients with Fair result (psoriasis): 2 patients | No. of patients with Good result (psoriasis): 1 patients | No. of patients with Poor result (psoriasis): 1 patients | Relative skin phototoxicity (skin): 0 | Percent inhibition ± standard error of epidermal DNA synthesis (epidermal DNA synthesis [2]): 54.2 ± 6.8% | K (association constants) of the complexes with DNA (DNA [5]): 1250 | 1/n (frequency of binding sites) (DNA [5]): 0.087 | 1/n (frequency of binding sites), relative (DNA [5]): 138 | K (association constants), relative (DNA [5]): 223 | inhibition of DNA synthesis, relative [6]: 272 | Rate constants of the photoreactions with DNA (DNA [7]): 3.2 K × 10^-2 × min^-1

Cc1oc2ccc3c(C)cc(=O)oc3c2c1COCCN(C)C [4,5'-dimethyl-4'-N,N-dimethylaminoethoxymethylangelicin]
inhibition in vivo at 0.01 % (epidermal DNA synthesis [1]): 29.4 ± 16.2% | inhibition of RNA synthesis, relative [3]: 162 | water solubility (Solubility): water soluble | capacity to form interstrand cross-linkages (DNA [4]): 0 | Relative skin phototoxicity (skin): 0 | K (association constants) of the complexes with DNA (DNA [5]): > 10000 | 1/n (frequency of binding sites) (DNA [5]): > 0.15 | increase of K (affinity towards DNA) (DNA [5]; on introduction of a cationic moiety in addition to the two methyl groups): more than 20 times | 1/n (frequency of binding sites), relative (DNA [5]): > 230 | K (association constants), relative (DNA [5]): > 1700 | inhibition of DNA synthesis, relative [6]: 290 | photobinding capacity to DNA (in words) (DNA [7]): strongly increased photobinding capacity

Cc1oc2ccc3c(C)cc(=O)oc3c2c1CN [4,5'-dimethyl-4'-aminomethylangelicin hydrochloride]
inhibition of RNA synthesis, relative [3]: 23.3 | water solubility (Solubility): water soluble | capacity to form interstrand cross-linkages (DNA [4]): 0 | Relative skin phototoxicity (skin): 0 | K (association constants) of the complexes with DNA (DNA [5]): 16300 | 1/n (frequency of binding sites) (DNA [5]): 0.255 | 1/n (frequency of binding sites), relative (DNA [5]): 404 | K (association constants), relative (DNA [5]): 2910 | capacity to inhibit the DNA and RNA synthesis (in words) ([6]; Ehrlich ascites tumor cells, versus angelicin): lower than that of angelicin | inhibition of DNA synthesis, relative [6]: 25 | Rate constants of the photoreactions with DNA (DNA [7]): 0.8 K × 10^-2 × min^-1 | Rate constants of the photoreactions with DNA, relative (DNA [7]): 72 | photobinding capacity to DNA (in words) (DNA [7]): lower than that of angelicin

Cc1cc2c(ccc3c(C)cc(=O)oc32)o1 [4,5'-dimethylangelicin]
inhibition in vivo at 0.01 % (epidermal DNA synthesis [1]): 37.6 ± 4.9% | inhibition of RNA synthesis, relative [3]: 172 | capacity to form interstrand cross-linkages (DNA [4]): 0 | No. of patients with Excellent result (psoriasis): 0 patients | No. of patients with Fair result (psoriasis): 3 patients | No. of patients with Good result (psoriasis): 1 patients | No. of patients with Poor result (psoriasis): 0 patients | Relative skin phototoxicity (skin): 0 | Percent inhibition ± standard error of epidermal DNA synthesis (epidermal DNA synthesis [2]): 51.0 ± 8.0% | K (association constants) of the complexes with DNA (DNA [5]): 1410 | 1/n (frequency of binding sites) (DNA [5]): 0.094 | 1/n (frequency of binding sites), relative (DNA [5]): 149 | K (association constants), relative (DNA [5]): 252 | inhibition of DNA synthesis, relative [6]: 230 | LD50 (Acute toxicity in mice): 2500 mg/kg | Rate constants of the photoreactions with DNA (DNA [7]): 4.0 K × 10^-2 × min^-1 | Rate constants of the photoreactions with DNA, relative (DNA [7]): 363

Cc1cc(=O)oc2c1c(C)cc1occc12 [4,5-dimethylangelicin]
inhibition in vivo at 0.01 % (epidermal DNA synthesis [1]): 36 ± 1.1% | No. of patients with Excellent result (psoriasis): 0 patients | No. of patients with Fair result (psoriasis): 0 patients | No. of patients with Good result (psoriasis): 0 patients | No. of patients with Poor result (psoriasis): 2 patients | efficacy in psoriasis patients (in words) (psoriasis; topical + UV-A): equal to angelicin | Percent inhibition ± standard error of epidermal DNA synthesis (epidermal DNA synthesis [2]): 55.0 ± 6.0%

COc1c2ccoc2cc2oc(=O)ccc12 [5-MOP, 5-methoxypsoralen]
No. of patients with Excellent result (psoriasis): 0 patients | No. of patients with Fair result (psoriasis): 1 patients | No. of patients with Good result (psoriasis): 4 patients | No. of patients with Poor result (psoriasis): 4 patients | DNA intercalation property (DNA [8]): strong | Interstrand cross-linking induction in DNA (DNA [8]): strong, well known | Monoadduct forming property (DNA [8]): known, strong | Photobinding capacity to DNA (DNA [8]): known, strong | Stimulation of melamin pigmentation (melamin pigmentation): strong, well known | Carcinogenicity (oral) [9]: weak | Carcinogenicity (topical) [9]: strong | Photosensitizing activity [10]: known, strong | Mutagenicity [11]: known, strong | DNA synthesis inhibiting property (DNA synthesis): known, strong

Cc1cc2cc3c(C)cc(=O)oc3c(C)c2o1 [TMP, 4,5',8-trimethylpsoralen]
No. of patients with Excellent result (psoriasis): 2 patients | No. of patients with Fair result (psoriasis): 2 patients | No. of patients with Good result (psoriasis): 2 patients | No. of patients with Poor result (psoriasis): 2 patients | DNA intercalation property (DNA [8]): strong | Interstrand cross-linking induction in DNA (DNA [8]): strong, well known | Monoadduct forming property (DNA [8]): known, strong | Photobinding capacity to DNA (DNA [8]): known, strong | Stimulation of melamin pigmentation (melamin pigmentation): strong, well known | Carcinogenicity (oral) [9]: weak | Carcinogenicity (topical) [9]: strong | Photosensitizing activity [10]: known, strong | Mutagenicity [11]: known, strong | DNA synthesis inhibiting property (DNA synthesis): known, strong
